Experiments:
Mino cells = assay: Antiproliferative effect, MTS cell viability assay, Mino cells; assay type: cell-based; conditions: Homo sapiens, MINO, Mino mantle cell lymphoma cells; read-out: IC50 (anti-proliferation) Mino cells
Method in brief: (§1)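 MTS read-out, A490 of formazan from metabolically active cells; compound 0–10 μM (0, 0.001, 0.01, 0.1, 1, 10 μM), 72 h exposure.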

BTK [1] = biological target: T1, BTK (Homo sapiens, UniProt Q06187); assay: BTK degradation, DC50 and Dmax of Table 1 (cell line not given); assay type: cell-based; parameters: endogenous in cells; conditions: for DC50: concentration giving 50% reduction of BTK expression level
T1 sequence (Q06187 whole entry): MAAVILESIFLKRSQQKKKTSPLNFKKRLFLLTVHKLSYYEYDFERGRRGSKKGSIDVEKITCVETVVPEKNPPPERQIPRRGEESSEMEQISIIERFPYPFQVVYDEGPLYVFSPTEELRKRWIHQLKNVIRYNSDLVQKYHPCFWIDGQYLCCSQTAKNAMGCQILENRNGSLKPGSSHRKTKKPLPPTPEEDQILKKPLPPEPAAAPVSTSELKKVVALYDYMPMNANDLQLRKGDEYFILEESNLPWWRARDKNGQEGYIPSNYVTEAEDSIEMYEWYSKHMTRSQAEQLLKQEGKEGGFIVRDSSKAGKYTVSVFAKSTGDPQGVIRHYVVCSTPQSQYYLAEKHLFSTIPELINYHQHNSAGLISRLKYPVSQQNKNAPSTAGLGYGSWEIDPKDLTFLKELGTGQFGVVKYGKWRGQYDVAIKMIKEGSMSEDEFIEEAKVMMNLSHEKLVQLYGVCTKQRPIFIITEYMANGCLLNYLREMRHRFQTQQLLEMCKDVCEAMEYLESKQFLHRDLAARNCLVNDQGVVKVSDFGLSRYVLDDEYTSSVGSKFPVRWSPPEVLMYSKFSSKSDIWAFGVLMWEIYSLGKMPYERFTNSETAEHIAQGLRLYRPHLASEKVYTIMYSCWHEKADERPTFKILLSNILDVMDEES

JeKo-1 cells = assay: Antiproliferative effect, MTS cell viability assay, JeKo-1 cells; assay type: cell-based; conditions: Homo sapiens; JeKo-1 mantle cell lymphoma cells; read-out: IC50 (anti-proliferation) JeKO-1 cells
Method in brief: as §1

BTK [2] = biological target: T1, BTK; assay: Degradation of BTK protein in Namalwa cells (Western blot; DC50, Dmax); conditions: for DC50: cell line not given

Nc1ncnc2c1c(-c1ccc(Oc3ccccc3)cc1)nn2[C@@H]1CCCN(C2CCN(C(=O)N3CCN(CCN4CCC(c5ccc6c(c5)CN(C5CCC(=O)NC5=O)C6=O)CC4)CC3)CC2)C1 (stereo partly drawn) [Compound 180, 3-(5-(1-(2-(4-((R)-3-(4-amino-3-(4-phenoxyphenyl)-1H-pyrazolo[3,4-d]pyrimidin-1-yl)-[1,4′-bipiperidine]-1′-carbonyl)piperazin-1-yl)ethyl)piperidin-4-yl)-1-oxoisoindolin-2-yl)piperidine-2,6-dione]
IC50 (Mino cells): 1000 to 10000 nM
Dmax (BTK [1]): > 75%
DC50 (BTK [1]): 10 to 50 nM
IC50 (JeKo-1 cells): > 10000 nM

Nc1ncnc2c1c(-c1ccc(Oc3ccccc3)cc1)nn2C1CCN(CCOCCOCCC2CCN(c3ccc4c(c3)C(=O)N(C3CCC(=O)NC3=O)C4=O)CC2)CC1 (centres unmarked) [Compound 17, 5-(4-(2-(2-(2-(4-(4-amino-3-(4-phenoxyphenyl)-1H-pyrazolo[3,4-d]pyrimidin-1-yl)piperidin-1-yl)ethoxy)ethoxy)ethyl)piperidin-1-yl)-2-(2,6-dioxopiperidin-3-yl)isoindoline-1,3-dione]
IC50 (Mino cells): 1000 to 10000 nM
Dmax (BTK [1]): > 90%
DC50 (BTK [1]): < 10 nM
IC50 (JeKo-1 cells): 1000 to 10000 nM

Nc1ncnc2c1c(-c1ccc(Oc3ccccc3)cc1)nn2[C@@H]1CCCN(C(=O)N2CCN(c3ccc4c(c3)CN(C3CCC(=O)NC3=O)C4=O)CC2)C1 (stereo partly drawn) [Compound 46, 3-(5-(4-((R)-3-(4-amino-3-(4-phenoxyphenyl)-1H-pyrazolo[3,4-d]pyrimidin-1-yl)piperidine-1-carbonyl)piperazin-1-yl)-1-oxoisoindolin-2-yl)piperidine-2,6-dione]
IC50 (Mino cells): > 10000 nM
Dmax (BTK [1]): > 50%
DC50 (BTK [1]): > 50 nM
IC50 (JeKo-1 cells): > 10000 nM

Nc1ncnc2c1c(-c1ccc(Oc3ccccc3)cc1)nn2[C@@H]1CCCN(CC2CCN(CCCN3CCC(c4ccc5c(c4)C(=O)N(C4CCC(=O)NC4=O)C5=O)CC3)CC2)C1 (stereo partly drawn) [Compound 139, 5-(1-(3-(4-(((R)-3-(4-amino-3-(4-phenoxyphenyl)-1H-pyrazolo[3,4-d]pyrimidin-1-yl)piperidin-1-yl)methyl)piperidin-1-yl)propyl)piperidin-4-yl)-2-(2,6-dioxopiperidin-3-yl)isoindoline-1,3-dione]
IC50 (Mino cells): > 10000 nM
Dmax (BTK [1]): > 75%
DC50 (BTK [1]): 10 to 50 nM
IC50 (JeKo-1 cells): > 10000 nM

Nc1ncnc2c1c(-c1ccc(Oc3ccccc3)cc1)nn2[C@@H]1CCCN(C(=O)N2CCC(CCCN3CCN(c4ccc5c(c4)CN(C4CCC(=O)NC4=O)C5=O)CC3)CC2)C1 (stereo partly drawn) [Compound 106, 3-(5-(4-(3-(1-((R)-3-(4-amino-3-(4-phenoxyphenyl)-1H-pyrazolo[3,4-d]pyrimidin-1-yl)piperidine-1-carbonyl)piperidin-4-yl)propyl)piperazin-1-yl)-1-oxoisoindolin-2-yl)piperidine-2,6-dione]
IC50 (Mino cells): > 10000 nM
Dmax (BTK [1]): > 75%
DC50 (BTK [1]): > 50 nM
IC50 (JeKo-1 cells): > 10000 nM

Nc1ncnc2c1c(-c1ccc(Oc3ccccc3)cc1)nn2C1CCN(C(=O)N2CCC(CCCN3CCN(c4ccc5c(c4)C(=O)N(C4CCC(=O)NC4=O)C5=O)CC3)CC2)CC1 (centres unmarked) [Compound 117, 5-(4-(3-(1-(4-(4-amino-3-(4-phenoxyphenyl)-1H-pyrazolo[3,4-d]pyrimidin-1-yl)piperidine-1-carbonyl)-piperidin-4-yl)propyl)piperazin-1-yl)-2-(2,6-dioxopiperidin-3-yl)isoindoline-1,3-dione]
IC50 (Mino cells): 1000 to 10000 nM
Dmax (BTK [1]): > 75%
DC50 (BTK [1]): > 50 nM
IC50 (JeKo-1 cells): 1000 to 10000 nM

Nc1ncnc2c1c(-c1ccc(Oc3ccccc3)cc1)nn2C1CCN(C(=O)N2CCC(CCN3CCC(c4ccc5c(c4)CN(C4CCC(=O)NC4=O)C5=O)CC3)CC2)CC1 (centres unmarked) [Compound 104, 3-(5-(1-(2-(1-(4-(4-amino-3-(4-phenoxyphenyl)-1H-pyrazolo[3,4-d]pyrimidin-1-yl)piperidine-1-carbonyl)piperidin-4-yl)ethyl)piperidin-4-yl)-1-oxoisoindolin-2-yl)piperidine-2,6-dione]
IC50 (Mino cells): 1000 to 10000 nM
Dmax (BTK [1]): > 90%
DC50 (BTK [1]): 10 to 50 nM
IC50 (JeKo-1 cells): 1000 to 10000 nM

Nc1ncnc2c1c(-c1ccc(Oc3ccccc3)cc1)nn2[C@@H]1CCCN(C2CCN(C(=O)N3CCC(N4CCC(c5ccc6c(c5)C(=O)N(C5CCC(=O)NC5=O)C6=O)CC4)CC3)CC2)C1 (stereo partly drawn) [Compound 165, 5-(1′-((R)-3-(4-amino-3-(4-phenoxyphenyl)-1H-pyrazolo[3,4-d]pyrimidin-1-yl)-[1,4′-bipiperidine]-1′-carbonyl)-[1,4′-bipiperidin]-4-yl)-2-(2,6-dioxopiperidin-3-yl)isoindoline-1,3-dione]
IC50 (Mino cells): 1000 to 10000 nM
Dmax (BTK [1]): > 75%
DC50 (BTK [1]): 10 to 50 nM
IC50 (JeKo-1 cells): > 10000 nM

Nc1ncnc2c1c(-c1ccc(Oc3ccccc3)cc1)nn2[C@@H]1CCCN(C2CCN(C(=O)N3CCC(CCC4CCN(c5ccc6c(c5)CN(C5CCC(=O)NC5=O)C6=O)CC4)CC3)CC2)C1 (stereo partly drawn) [Compound 186, 3-(5-(4-(2-(1-((R)-3-(4-amino-3-(4-phenoxyphenyl)-1H-pyrazolo[3,4-d]pyrimidin-1-yl)-[1,4′-bipiperidine]-1′-carbonyl)piperidin-4-yl)ethyl)piperidin-1-yl)-1-oxoisoindolin-2-yl)piperidine-2,6-dione]
IC50 (Mino cells): 1000 to 10000 nM
Dmax (BTK [1]): > 75%
DC50 (BTK [1]): 10 to 50 nM
IC50 (JeKo-1 cells): 1000 to 10000 nM

Nc1ncnc2c1c(-c1ccc(Oc3ccccc3)cc1)nn2C1CCN(CCOCCOCCN2CCC(c3ccc4c(c3)CN(C3CCC(=O)NC3=O)C4=O)CC2)CC1 (centres unmarked) [Compound 10, 3-(5-(1-(2-(2-(2-(4-(4-amino-3-(4-phenoxyphenyl)-1H-pyrazolo[3,4-d]pyrimidin-1-yl)piperidin-1-yl)ethoxy)ethoxy)ethyl)piperidin-4-yl)-1-oxoisoindolin-2-yl)piperidine-2,6-dione]
IC50 (Mino cells): < 1000 nM
Dmax (BTK [1]): > 90%
DC50 (BTK [1]): < 10 nM
IC50 (JeKo-1 cells): 1000 to 10000 nM

Nc1ncnc2c1c(-c1ccc(Oc3ccccc3)cc1)nn2[C@@H]1CCCN(CC2CCN(CCCN3CCC(c4ccc5c(c4)CN(C4CCC(=O)NC4=O)C5=O)CC3)CC2)C1 (stereo partly drawn) [Compound 140, 3-(5-(1-(3-(4-(((R)-3-(4-amino-3-(4-phenoxyphenyl)-1H-pyrazolo[3,4-d]pyrimidin-1-yl)piperidin-1-yl)methyl)piperidin-1-yl)propyl)piperidin-4-yl)-1-oxoisoindolin-2-yl)piperidine-2,6-dione]
IC50 (Mino cells): 1000 to 10000 nM
Dmax (BTK [1]): > 75%
DC50 (BTK [1]): 10 to 50 nM
IC50 (JeKo-1 cells): > 10000 nM

Nc1ncnc2c1c(-c1ccc(Oc3ccccc3)cc1)nn2[C@@H]1CCCN(C2CCN(C(=O)N3CCC(CCN4CCC(c5ccc6c(c5)C(=O)N(C5CCC(=O)NC5=O)C6=O)CC4)CC3)CC2)C1 (stereo partly drawn) [Compound 183, 5-(1-(2-(1-((R)-3-(4-amino-3-(4-phenoxyphenyl)-1H-pyrazolo[3,4-d]pyrimidin-1-yl)-[1,4′-bipiperidine]-1′-carbonyl)piperidin-4-yl)ethyl)piperidin-4-yl)-2-(2,6-dioxopiperidin-3-yl)isoindoline-1,3-dione]
IC50 (Mino cells): 1000 to 10000 nM
Dmax (BTK [1]): > 75%
DC50 (BTK [1]): 10 to 50 nM
IC50 (JeKo-1 cells): > 10000 nM

Nc1ncnc2c1c(-c1ccc(Oc3ccccc3)cc1)nn2[C@@H]1CCCN(C2CCN(C(=O)N3CCC(CN4CCN(c5ccc6c(c5)CN(C5CCC(=O)NC5=O)C6=O)CC4)CC3)CC2)C1 (stereo partly drawn) [Compound 170, 3-(5-(4-((1-((R)-3-(4-amino-3-(4-phenoxyphenyl)-1H-pyrazolo(3,4-d)pyrimidin-1-yl)-(1,4′-bipiperidine)-1′-carbonyl)piperidin-4-yl)methyl)piperazin-1-yl)-1-oxoisoindolin-2-yl)piperidine-2,6-dione]
IC50 (Mino cells): 1000 to 10000 nM
Dmax (BTK [1]): > 90%
DC50 (BTK [1]): 10 to 50 nM
IC50 (JeKo-1 cells): 1000 to 10000 nM

Nc1ncnc2c1c(-c1ccc(Oc3ccccc3)cc1)nn2C1CCN(CCOCCOCCC2CCN(c3ccc4c(c3)CN(C3CCC(=O)NC3=O)C4=O)CC2)CC1 (centres unmarked) [Compound 18, 3-(5-(4-(2-(2-(2-(4-(4-amino-3-(4-phenoxyphenyl)-1H-pyrazolo[3,4-d]pyrimidin-1-yl)piperidin-1-yl)ethoxy)ethoxy)ethyl)piperidin-1-yl)-1-oxoisoindolin-2-yl)piperidine-2,6-dione]
IC50 (Mino cells): 1000 to 10000 nM
Dmax (BTK [1]): > 90%
DC50 (BTK [1]): < 10 nM
IC50 (JeKo-1 cells): < 1000 nM

Nc1ncnc2c1c(-c1ccc(Oc3ccccc3)cc1)nn2[C@@H]1CCCN(C2CCN(C(=O)N3CCN(CCN4CCN(c5ccc6c(c5)CN(C5CCC(=O)NC5=O)C6=O)CC4)CC3)CC2)C1 (stereo partly drawn) [Compound 176, 3-(5-(4-(2-(4-((R)-3-(4-amino-3-(4-phenoxyphenyl)-1H-pyrazolo[3,4-d]pyrimidin-1-yl)-[1,4′-bipiperidine]-1′-carbonyl)piperazin-1-yl)ethyl)piperazin-1-yl)-1-oxoisoindolin-2-yl)piperidine-2,6-dione]
IC50 (Mino cells): 1000 to 10000 nM
Dmax (BTK [1]): > 90%
DC50 (BTK [1]): > 50 nM
IC50 (JeKo-1 cells): 1000 to 10000 nM

Nc1ncnc2c1c(-c1ccc(Oc3ccccc3)cc1)nn2C1CCN(CCN2CCN(CCSc3ccc4c(c3)C(=O)N(C3CCC(=O)NC3=O)C4=O)CC2)CC1 (centres unmarked) [Compound 465, 5-((2-(4-(2-(4-(4-amino-3-(4-phenoxyphenyl)-1H-pyrazolo(3,4-d)pyrimidin-1-yl)piperidin-1-yl)ethyl)piperazin-1-yl)ethyl)thio)-2-(2,6-dioxopiperidin-3-yl)isoindoline-1,3-dione]
IC50 (Mino cells): 1000 to 10000 nM
IC50 (JeKo-1 cells): 1000 to 10000 nM
DC50 (BTK [2]; read-out: DC50 (BTK degradation), concentration giving 50% reduction of BTK expression level): 10 to 50 nM
Dmax (BTK [2]; read-out: Dmax (BTK degradation)): > 90%

Nc1ncnc2c1c(-c1ccc(Oc3ccccc3)cc1)nn2C1CCN(C2CCN(CCN3CCC(c4ccc5c(c4)C(=O)N(C4CCC(=O)NC4=O)C5=O)CC3)CC2)CC1 (centres unmarked) [Compound 219, 5-(1-(2-(4-(4-amino-3-(4-phenoxyphenyl)-1H-pyrazolo[3,4-d]pyrimidin-1-yl)-[1,4′-bipiperidin]-1′-yl)ethyl)piperidin-4-yl)-2-(2,6-dioxopiperidin-3-yl)isoindoline-1,3-dione]
IC50 (Mino cells): 1000 to 10000 nM
IC50 (JeKo-1 cells): 1000 to 10000 nM
Dmax (BTK [2]): > 50%
DC50 (BTK [2]; BTK degradation): 10 to 50 nM

Source: patent US12139492B2 (Endotarget Inc., priority 2021, dated 2024)
